# Reference: patent US8143259B2, “Cold menthol receptor antagonists” (Janssen Pharmaceutica, NV, priority 2008, dated 2012)
# Several values for one entry are separate records, joined by “and”; a condition that tells them apart may be missing. Equal entries are not always repeated.
# Target: T1, canine TRPM8 (Canis lupus familiaris, UniProt Q1A7N1)
# T1 construct: expressed in transfected cells
# Experiment: In Vitro Canine TRPM8 Functional Assay (Ca2+ fluorescence, icilin activation)
# Format: cell-based
# Settings: for % Inh @ 1 μM: 1 μM compound; for IC50: HEK293 cells stably expressing canine TRPM8, icilin activation, Ca2+ fluorescence; for % Inh @ 0.5 μM: 0.5 μM compound; for inhibition at 1 µM: HEK293, 1 μM compound; for inhibition at 0.5 µM: HEK293, 0.5 μM compound
# Outline: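 HEK293 cells stably expressing canine TRPM8, loaded with Calcium 3 dye; compounds added 5 min before icilin at a concentration giving ~80% maximal response. Peak icilin-evoked Ca2+ fluorescence, basal-subtracted and normalised to maximal response, fitted by sigmoidal nonlinear regression; quadruplicate wells.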
# [1] = canine TRPM8 HEK293, icilin, 0.5 µM
# T1 sequence (Q1A7N1 1-1104): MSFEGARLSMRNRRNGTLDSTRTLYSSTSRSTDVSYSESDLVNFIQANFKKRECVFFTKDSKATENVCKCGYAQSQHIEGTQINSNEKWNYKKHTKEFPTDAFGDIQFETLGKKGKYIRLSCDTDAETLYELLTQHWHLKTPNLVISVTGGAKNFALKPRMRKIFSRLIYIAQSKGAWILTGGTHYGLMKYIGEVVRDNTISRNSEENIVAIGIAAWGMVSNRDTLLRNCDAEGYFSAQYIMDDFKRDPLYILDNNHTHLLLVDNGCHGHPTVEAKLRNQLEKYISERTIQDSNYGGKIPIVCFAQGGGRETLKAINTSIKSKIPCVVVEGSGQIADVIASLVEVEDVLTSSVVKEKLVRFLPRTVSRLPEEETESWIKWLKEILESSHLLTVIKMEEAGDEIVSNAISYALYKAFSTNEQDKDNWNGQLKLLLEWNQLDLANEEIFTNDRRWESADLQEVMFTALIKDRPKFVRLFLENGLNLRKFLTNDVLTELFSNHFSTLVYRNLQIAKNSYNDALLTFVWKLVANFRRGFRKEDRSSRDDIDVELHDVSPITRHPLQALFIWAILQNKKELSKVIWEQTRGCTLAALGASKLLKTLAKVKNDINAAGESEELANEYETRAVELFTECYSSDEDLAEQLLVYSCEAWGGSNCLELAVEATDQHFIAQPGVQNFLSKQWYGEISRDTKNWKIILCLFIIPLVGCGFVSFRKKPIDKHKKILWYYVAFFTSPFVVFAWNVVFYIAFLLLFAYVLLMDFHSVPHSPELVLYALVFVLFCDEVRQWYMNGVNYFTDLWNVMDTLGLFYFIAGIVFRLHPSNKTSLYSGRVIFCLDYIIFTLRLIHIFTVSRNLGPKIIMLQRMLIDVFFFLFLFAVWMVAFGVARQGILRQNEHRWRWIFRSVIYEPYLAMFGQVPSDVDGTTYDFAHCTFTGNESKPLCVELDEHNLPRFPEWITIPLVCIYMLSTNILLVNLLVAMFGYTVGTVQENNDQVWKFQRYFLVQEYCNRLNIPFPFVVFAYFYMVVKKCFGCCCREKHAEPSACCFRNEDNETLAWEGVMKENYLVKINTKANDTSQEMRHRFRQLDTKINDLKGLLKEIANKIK
Structure (SMILES),IC50,"inhibition at 0.5 µM (canine TRPM8 HEK293, icilin)",further results
"CC(C)(C)c1ccc(C(Nc2ccccc2)C(=O)N2CCCC2c2ccc(Cl)cc2)cc1 (single isomer, unassigned) [Cpd 367]",149 ± 51 nM,–,"% Inh @ 1 μM (canine TRPM8 HEK293, icilin, 1 µM): 5.8157%"
"CC(C)(C)c1ccc(C(Nc2ccccc2)C(=O)N2CCCC2CNc2ccccc2)cc1 (single isomer, unassigned) [Cpd 368]",–,–,"% Inh @ 1 μM (canine TRPM8 HEK293, icilin): 15.864%"
"O=C(C(Nc1ccccc1)c1ccc(C(F)(F)F)cc1)N1CCCC1c1ccccc1Cl (single isomer, unassigned) [Cpd 369]",–,–,"% Inh @ 0.5 μM (canine TRPM8 HEK293, icilin): 7.773%; % Inh @ 3 μM (3 μM compound, canine TRPM8 HEK293, icilin): 48%"
CC(C)(C)c1ccc(C(Nc2ccccc2)C(=O)N2CCC(O)(c3ccccc3)CC2)cc1 (stereo not drawn) [Cpd 3],351 nM,–,"inhibition at 1 µM (canine TRPM8 HEK293, icilin): 101%"
CC(C)(C)c1ccc(C(Nc2ccccc2)C(=O)N2CCC(O)(c3ccccn3)CC2)cc1 (stereo not drawn) [Cpd 4],291 nM,–,"inhibition at 1 µM (canine TRPM8 HEK293, icilin): 102%"
CC(C)(C)c1ccc(C(Nc2ccccc2)C(=O)N2CCCC2c2cccnc2)cc1 (stereo not drawn) [Cpd 5],99.5 nM,–,"inhibition at 1 µM (canine TRPM8 HEK293, icilin): 102%"
CC(C)(C)c1ccc(C(Nc2ccccc2)C(=O)N2CCC(c3ccccc3)C2)cc1 (stereo not drawn) [Cpd 13],323 nM,–,"inhibition at 1 µM (canine TRPM8 HEK293, icilin): 103%"
CC(C)(C)c1ccc(C(Nc2ccccc2)C(=O)N2CCCCC2Cc2ccccc2)cc1 (stereo not drawn) [Cpd 14],416 nM,–,"inhibition at 1 µM (canine TRPM8 HEK293, icilin): 102%"
CC(C)(C)c1ccc(C(Nc2ccccc2)C(=O)N2CCc3ccccc32)cc1 (stereo not drawn) [Cpd 15],257 nM,–,"inhibition at 1 µM (canine TRPM8 HEK293, icilin): 94.8%"
CC(C)(C)c1ccc(C(Nc2ccccc2)C(=O)N2CCCCCC2c2ccccc2)cc1 (stereo not drawn) [Cpd 18],349 nM,–,"inhibition at 1 µM (canine TRPM8 HEK293, icilin): 95.4%"
O=C(C(Nc1ccccc1)c1ccc(C(F)(F)F)cc1)N1CCCC1c1cc2ccccc2[nH]1 (stereo not drawn) [Cpd 26],–,–,% Inh @ 0.5 μM [1]: 56.872%
Cc1cccc2c1N(C(=O)C(Nc1ccccc1)c1ccc(C(F)(F)F)cc1)CC2 (stereo not drawn) [Cpd 27],316 nM,93.2%,–
"Cc1ccccc1NC(C(=O)N1CCc2ccccc21)c1ccc(C(F)(F)F)cc1 (stereo not drawn) [Cpd 34, 1-(Indolin-1-yl)-2-(o-tolylamino)-2-(4-(trifluoromethyl)phenyl)-ethanone]",161 nM,102%,–
O=C(C(Nc1ccccc1F)c1ccc(C(F)(F)F)cc1)N1CCc2ccccc21 (stereo not drawn) [Cpd 36],459 nM,90.7%,–
O=C(C(c1ccc(C(F)(F)F)cc1)N1CCc2ccccc21)N1CCc2ccccc21 (stereo not drawn) [Cpd 42],231 nM,102%,"inhibition at 1 µM (canine TRPM8 HEK293, icilin): 29%"
CC(C)(C)c1ccc(C(Nc2ccccc2)C(=O)N2CCCC2c2ccncc2)cc1 (stereo not drawn) [Cpd 53],53.8 nM,99%,–
CC(C)(C)c1ccc(C(Nc2ccccc2)C(=O)N2CCCC2c2ccccn2)cc1 (stereo not drawn) [Cpd 54],–,–,% Inh @ 0.5 μM [1]: 69.055%
N#Cc1ccc(C(Nc2ccccc2F)C(=O)N2CCCC2c2ccccc2Cl)cc1 (stereo not drawn) [Cpd 62],78 nM,103%,–
O=C(C(Nc1ccccc1F)c1ccc(C(F)(F)F)cc1)N1Cc2ccccc2C1 (stereo not drawn) [Cpd 64],22 nM and 25 nM,102%,"inhibition at 0.2 µM (HEK293, 0.2 μM compound, canine TRPM8 HEK293, icilin): 100%"
O=C(C(Nc1ccccc1)c1ccc(Br)cc1)N1Cc2ccccc2C1 (stereo not drawn) [Cpd 71],74 nM,91%,–
O=C(C(Nc1ccc(F)cc1)c1ccc(C(F)(F)F)cc1)N1Cc2ccccc2C1 (stereo not drawn) [Cpd 77],84 nM,98%,–
O=C(C(Nc1ccccc1)c1ccc(Cl)cc1)N1Cc2ccccc2C1 (stereo not drawn) [Cpd 87],81 nM,97%,–
O=C(C(Nc1ccccc1)c1ccc(Cl)cc1)N1CCc2ccccc2C1 (stereo not drawn) [Cpd 88],96 nM,99%,–
O=C(C(Nc1ccccc1F)c1ccc(Br)cc1)N1CCCC1c1ccccc1Cl (stereo not drawn) [Cpd 89],20 nM,98%,–
O=C(C(Nc1ccccc1F)c1ccc(Br)cc1)N1Cc2ccccc2C1 (stereo not drawn) [Cpd 92],89 nM,98%,–
O=C(C(Nc1ccccc1F)c1ccc(Br)cc1)N1CCc2ccccc2C1 (stereo not drawn) [Cpd 93],176 nM,95%,–
O=C(C(Nc1ccccc1)c1cccc(C(F)(F)F)c1)N1Cc2ccccc2C1 (stereo not drawn) [Cpd 99],89 nM,99%,–
O=C(C(CNc1ccccc1)c1ccc(C(F)(F)F)cc1)N1Cc2ccccc2C1 (stereo not drawn) [Cpd 100],290 nM,90%,–
O=C(C(CNc1ccccc1)c1ccc(C(F)(F)F)cc1)N1CCc2ccccc2C1 (stereo not drawn) [Cpd 102],159 nM,98%,–

# Second part, led by results:
IC50,"inhibition at 0.5 µM (canine TRPM8 HEK293, icilin)",Structure (SMILES),further results
172 nM,–,CC(C)(C)c1ccc(C(Nc2ccccc2)C(=O)N2CCCCC2c2ccccc2)cc1 (stereo not drawn) [Cpd 11],"inhibition at 1 µM (canine TRPM8 HEK293, icilin): 103%"
60.6 nM,–,CC(C)(C)c1ccc(C(Nc2ccccc2)C(=O)N2CCCC2c2ccccc2)cc1 (stereo not drawn) [Cpd 12],"inhibition at 1 µM (canine TRPM8 HEK293, icilin): 103%"
60.3 nM,–,O=C(C(Nc1ccccc1)c1ccc(C(F)(F)F)cc1)N1CCCC1c1ccccc1 (stereo not drawn) [Cpd 17],"inhibition at 1 µM (canine TRPM8 HEK293, icilin): 98.2%"
282 nM,–,O=C(C(Nc1ccccc1)c1ccc(C(F)(F)F)cc1)N1CCCC1c1cccnc1 (stereo not drawn) [Cpd 19],"inhibition at 1 µM (canine TRPM8 HEK293, icilin): 100%"
29.9 nM,–,O=C(C(Nc1ccccc1)c1ccc(C(F)(F)F)cc1)N1CCCC1c1ccccc1F (stereo not drawn) [Cpd 20],"inhibition at 1 µM (canine TRPM8 HEK293, icilin): 101%"
14.9 nM,102%,O=C(C(Nc1ccccc1)c1ccc(C(F)(F)F)cc1)N1CCCC1c1cccs1 (stereo not drawn) [Cpd 24],–
141 nM,102%,O=C(C(Nc1ccccc1)c1ccc(C(F)(F)F)cc1)N1CCCC1c1cc2ccccc2[nH]1 (stereo not drawn) [Cpd 25],–
91.7 nM,103%,O=C(C(Nc1ccccc1)c1ccc(C(F)(F)F)cc1)N1CCCC1c1ccncc1 (stereo not drawn) [Cpd 28],–
40.9 nM,104%,O=C(C(Nc1ccccc1)c1ccc(C(F)(F)F)cc1)N1CCCC1c1ccccc1Br (stereo not drawn) [Cpd 29],–
31.2 nM,104%,Cc1ccccc1C1CCCN1C(=O)C(Nc1ccccc1)c1ccc(C(F)(F)F)cc1 (stereo not drawn) [Cpd 32],–
202 nM,96.5%,O=C(C(Nc1ccccc1)c1ccc(C(F)(F)F)cc1)N1CCc2ccccc21 (stereo not drawn) [Cpd 33],–
33.3 nM,101%,COc1ccccc1C1CCCN1C(=O)C(Nc1ccccc1)c1ccc(C(F)(F)F)cc1 (stereo not drawn) [Cpd 43],–
57.6 nM,101%,O=C(C(Nc1ccccc1)c1ccc(C(F)(F)F)cc1)N1CCCCC1c1ccccc1 (stereo not drawn) [Cpd 44],–
78.3 nM,102%,O=C(C(Nc1ccccc1)c1ccc(C(F)(F)F)cc1)N1CCCC1c1nccs1 (stereo not drawn) [Cpd 49],–
376 nM,83.6%,O=C(C(Nc1ccccc1)c1ccc(C(F)(F)F)cc1)N1CCCC1c1ccccn1 (stereo not drawn) [Cpd 50],–
19.8 nM,97.8%,O=C(C(Nc1ccccc1)c1ccc(C(F)(F)F)cc1)N1CCCC1c1ccco1 (stereo not drawn) [Cpd 52],–
207 nM,99.9%,CC(C)(C)c1ccc(C(Nc2ccccc2)C(=O)N2CCCC2c2ccccn2)cc1 (stereo not drawn) [Cpd 55],–

IC50,"inhibition at 0.5 µM (canine TRPM8 HEK293, icilin)",Structure (SMILES),further results
–,36%,"O=C(NN1CCCC1c1ccccc1Cl)C(Nc1ccccc1)c1ccc(C(F)(F)F)cc1 (stereo not drawn) [Cpd 63, N-[2-(2-Chloro-phenyl)-pyrrolidin-1-yl]-2-phenylamino-2-(4-trifluoromethyl-phenyl)-acetamide]",–
48 nM,100%,O=C(C(Nc1ccccc1F)c1ccc(C(F)(F)F)cc1)N1CCc2ccccc2C1 (stereo not drawn) [Cpd 65],–
28 nM,102%,COc1ccc(C(Nc2ccccc2)C(=O)N2CCCC2c2ccccc2Cl)cc1 (stereo not drawn) [Cpd 66],–
42 nM,102%,O=C(C(Nc1ccccc1)c1ccc(Br)cc1)N1CCCC1c1ccccc1Cl (stereo not drawn) [Cpd 67],–
23 nM,103%,O=C(C(Nc1ccccc1)c1ccc(Br)cc1)N1CCCC1c1ccccc1 (stereo not drawn) [Cpd 70],–
46 nM,102%,COc1ccc(C(Nc2ccccc2)C(=O)N2CCCC2c2ccccc2)cc1 (stereo not drawn) [Cpd 72],–
73 nM,98%,O=C(C(Nc1ccc(F)cc1)c1ccc(C(F)(F)F)cc1)N1CCCC1c1ccccc1Cl (stereo not drawn) [Cpd 74],–
138 nM,94%,O=C(C(Nc1cccc(F)c1)c1ccc(C(F)(F)F)cc1)N1CCCC1c1ccccc1Cl (stereo not drawn) [Cpd 78],–
50 nM,98%,COc1ccccc1C1CCCN1C(=O)C(Nc1cccc(F)c1)c1ccc(C(F)(F)F)cc1 (stereo not drawn) [Cpd 79],–
–,69%,"CC(Nc1ccccc1)(C(=O)N1CCCC1c1ccccc1Cl)c1ccc(C(F)(F)F)cc1 (stereo not drawn) [Cpd 80, 1-[2-(2-Chloro-phenyl)-pyrrolidin-1-yl]-2-phenylamino-2-(4-trifluoromethyl-phenyl)-propan-1-one]",–
15 nM,98%,O=C(C(Nc1ccccc1)c1ccc(Cl)cc1)N1CCCC1c1ccccc1Cl (stereo not drawn) [Cpd 84],–
6 nM,97%,COc1ccccc1C1CCCN1C(=O)C(Nc1ccccc1)c1ccc(Cl)cc1 (stereo not drawn) [Cpd 85],–
15 nM,97%,O=C(C(Nc1ccccc1)c1ccc(Cl)cc1)N1CCCC1c1ccccc1 (stereo not drawn) [Cpd 86],–
14 nM,97%,O=C(C(Nc1ccccc1F)c1ccc(Br)cc1)N1CCCC1c1ccccc1 (stereo not drawn) [Cpd 91],–
89 nM,100%,O=C(C(Nc1ccccc1)c1cccc(C(F)(F)F)c1)N1CCCC1c1ccccc1Cl (stereo not drawn) [Cpd 97],–
56 nM,100%,COc1ccccc1C1CCCN1C(=O)C(Nc1ccccc1)c1cccc(C(F)(F)F)c1 (stereo not drawn) [Cpd 98],–
182 nM,75%,O=C(C(CNc1ccccc1)c1ccc(C(F)(F)F)cc1)N1CCCC1c1ccccc1F (stereo not drawn) [Cpd 103],–
